According to patent US10131652B2, “Pyrimidinyloxy benzene derivatives as herbicides” (E. I. DU PONT DE NEMOURS AND COMPANY, priority 2014, dated 2018):

Tests used:
Format in all cases: in vivo
[1] = tested on: small-flower umbrella sedge (Cyperus difformis); assay: Test C flooded paddy test plant response; settings: Flood, 250 g ai/ha; scale of 0 to 100 where 0 is no effect and 100 is complete control; 13 to 15 days
Procedure, shortened: (§1)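 Scale 0 (no effect) to 100 (complete control), assigned visually versus controls after 13–15 d greenhouse. Application: directly to paddy water, 3 cm flood depth kept constant, 2-leaf stage.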

[2] = tested on: barnyardgrass (Echinochloa crus-galli); assay: Test C flooded paddy test plant response; settings: Flood, 250 g ai/ha; scale of 0 to 100 where 0 is no effect and 100 is complete control; 13 to 15 days
Procedure, shortened: as §1

[3] = tested on: ducksalad (Heteranthera limosa); assay: Test C flooded paddy test plant response; settings: Flood, 250 g ai/ha; scale of 0 to 100 where 0 is no effect and 100 is complete control; 13 to 15 days
Procedure, shortened: as §1

rice (Oryza sativa) = assay: Test C flooded paddy test plant response; settings: Flood, 250 g ai/ha; scale of 0 to 100 where 0 is no effect and 100 is complete control; 13 to 15 days
Procedure, shortened: as §1

[4] = tested on: wheat (Triticum aestivum); assay: Test B pre-/postemergence plant response
Procedure, shortened: (§2)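 Steps: plant seeds in loam soil–sand mix; spray soil preemergence, and in parallel spray 2–10 cm one- to two-leaf plants postemergence; hold ~10 days in greenhouse; visually rate injury against untreated controls (0 = no effect, 100 = complete control).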

[5] = tested on: pigweed (Amaranthus retroflexus); assay: Test B pre-/postemergence plant response
Procedure, shortened: as §2

corn (Zea mays) = assay: Test B pre-/postemergence plant response
Procedure, shortened: as §2

[6] = tested on: Italian ryegrass (Lolium multiflorum); assay: Test B pre-/postemergence plant response
Procedure, shortened: as §2

[7] = tested on: barnyardgrass (Echinochloa crus-galli); assay: Test B pre-/postemergence plant response
Procedure, shortened: as §2

[8] = tested on: ragweed (common ragweed, Ambrosia elatior); assay: Test B pre-/postemergence plant response
Procedure, shortened: as §2

[9] = tested on: giant foxtail (Setaria faberii); assay: Test B pre-/postemergence plant response
Procedure, shortened: as §2

kochia (Kochia scoparia) = assay: Test B pre-/postemergence plant response
Procedure, shortened: as §2

[10] = tested on: galium (catchweed bedstraw, Galium aparine); assay: Test B postemergence plant response
Procedure, shortened: (§3)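 Visual injury rating, 0–100 (0 = no effect, 100 = complete control), vs untreated controls ~10 days after postemergence spray; greenhouse; potted loam soil/sand; plants 2–10 cm, 1–2 leaf stage.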

[11] = tested on: blackgrass (Alopecurus myosuroides); assay: Test B postemergence plant response
Procedure, shortened: as §3

[12] = 125 g ai/ha, postemergence, 0 to 100 scale, 0 no effect, 100 complete control
[13] = Postemergence, 31 g ai/ha, 0 to 100 scale (0 no effect, 100 complete control)
[14] = 31 g ai/ha, Preemergence, 0 to 100 scale where 0 is no effect and 100 is complete control
[15] = Preemergence, 125 g ai/ha, 0 to 100 scale (0 no effect, 100 complete control)

Fc1cnc(Oc2ccccc2-c2cc(C(F)F)no2)nc1 [Compound 210]
Sedge, Umbrella plant response rating [1]: 40
Barnyardgrass plant response rating [2]: 0
Ducksalad plant response rating [3]: 85
Rice plant response rating (rice (Oryza sativa)): 0
Plant response rating, Wheat [4, 12]: 20
Plant response rating, Wheat [4, 13]: 0
Plant response rating, Pigweed [5, 14]: 100
Plant response rating, Pigweed [5, 12]: 80
Plant response rating, Pigweed [5, 13]: 50
Pigweed plant response rating [5, 15]: 100
Plant response rating, Corn (corn (Zea mays); [12]): 10
Plant response rating, Corn (corn (Zea mays); [13]): 0
Plant response rating, Ryegrass, Italian [6, 14]: 0
Plant response rating, Ryegrass, Italian [6, 12]: 0
Plant response rating, Ryegrass, Italian [6, 13]: 0
Ryegrass, Italian plant response rating [6, 15]: 10
Plant response rating, Barnyardgrass [7, 14]: 10
Plant response rating, Barnyardgrass [7, 12]: 0
Plant response rating, Barnyardgrass [7, 13]: 0
Barnyardgrass plant response rating [7, 15]: 80
Plant response rating, Ragweed [8, 14]: 0
Plant response rating, Ragweed [8, 12]: 30
Plant response rating, Ragweed [8, 13]: 10
Ragweed plant response rating [8, 15]: 20
Plant response rating, Foxtail, Giant [9, 14]: 40
Plant response rating, Foxtail, Giant [9, 12]: 40
Plant response rating, Foxtail, Giant [9, 13]: 0
Foxtail, Giant plant response rating [9, 15]: 90
Plant response rating, Kochia (kochia (Kochia scoparia); [14]): 50
Plant response rating, Kochia (kochia (Kochia scoparia); [12]): 80
Plant response rating, Kochia (kochia (Kochia scoparia); [13]): 50
Kochia plant response rating (kochia (Kochia scoparia); [15]): 90
Plant response rating, Galium [10, 12]: 90
Plant response rating, Galium [10, 13]: 50
Plant response rating, Blackgrass [11, 12]: 30
Plant response rating, Blackgrass [11, 13]: 10

Cc1cnc(Oc2ccccc2-c2cc(C(F)F)no2)nc1 [Compound 211]
Sedge, Umbrella plant response rating [1]: 20
Barnyardgrass plant response rating [2]: 0
Ducksalad plant response rating [3]: 70
Rice plant response rating (rice (Oryza sativa)): 0
Plant response rating, Wheat [4, 12]: 0
Plant response rating, Wheat [4, 13]: 0
Plant response rating, Pigweed [5, 14]: 100
Plant response rating, Pigweed [5, 12]: 50
Plant response rating, Pigweed [5, 13]: 20
Pigweed plant response rating [5, 15]: 100
Plant response rating, Corn (corn (Zea mays); [12]): 10
Plant response rating, Corn (corn (Zea mays); [13]): 0
Plant response rating, Ryegrass, Italian [6, 14]: 0
Plant response rating, Ryegrass, Italian [6, 12]: 0
Plant response rating, Ryegrass, Italian [6, 13]: 0
Ryegrass, Italian plant response rating [6, 15]: 0
Plant response rating, Barnyardgrass [7, 14]: 10
Plant response rating, Barnyardgrass [7, 12]: 10
Plant response rating, Barnyardgrass [7, 13]: 0
Barnyardgrass plant response rating [7, 15]: 50
Plant response rating, Ragweed [8, 14]: 0
Plant response rating, Ragweed [8, 12]: 30
Plant response rating, Ragweed [8, 13]: 0
Ragweed plant response rating [8, 15]: 30
Plant response rating, Foxtail, Giant [9, 14]: 10
Plant response rating, Foxtail, Giant [9, 12]: 50
Plant response rating, Foxtail, Giant [9, 13]: 10
Foxtail, Giant plant response rating [9, 15]: 100
Plant response rating, Kochia (kochia (Kochia scoparia); [14]): 20
Plant response rating, Kochia (kochia (Kochia scoparia); [12]): 90
Plant response rating, Kochia (kochia (Kochia scoparia); [13]): 40
Kochia plant response rating (kochia (Kochia scoparia); [15]): 80
Plant response rating, Galium [10, 12]: 100
Plant response rating, Galium [10, 13]: 60
Plant response rating, Blackgrass [11, 12]: 50
Plant response rating, Blackgrass [11, 13]: 10
